Test results from ChEMBL document CHEMBL3864153, “Metabolism-based structure optimization: Discovery of a potent and orally available tyrosine kinase ALK inhibitor bearing the tetracyclic benzo[b]carbazolone core” (Bioorg Med Chem Lett, 2016).
The source made the active and inactive calls. No cut-off for these calls is given here.

Legend:
[1] = target: T1, ALK tyrosine kinase receptor (Homo sapiens, UniProt Q9UM73); assay: Inhibition of recombinant wild type ALK (unknown origin) using poly (Glu,Tyr)4:1 as substrate after 60 mins by ELISA
Target sequence in this assay (Q9UM73 whole entry): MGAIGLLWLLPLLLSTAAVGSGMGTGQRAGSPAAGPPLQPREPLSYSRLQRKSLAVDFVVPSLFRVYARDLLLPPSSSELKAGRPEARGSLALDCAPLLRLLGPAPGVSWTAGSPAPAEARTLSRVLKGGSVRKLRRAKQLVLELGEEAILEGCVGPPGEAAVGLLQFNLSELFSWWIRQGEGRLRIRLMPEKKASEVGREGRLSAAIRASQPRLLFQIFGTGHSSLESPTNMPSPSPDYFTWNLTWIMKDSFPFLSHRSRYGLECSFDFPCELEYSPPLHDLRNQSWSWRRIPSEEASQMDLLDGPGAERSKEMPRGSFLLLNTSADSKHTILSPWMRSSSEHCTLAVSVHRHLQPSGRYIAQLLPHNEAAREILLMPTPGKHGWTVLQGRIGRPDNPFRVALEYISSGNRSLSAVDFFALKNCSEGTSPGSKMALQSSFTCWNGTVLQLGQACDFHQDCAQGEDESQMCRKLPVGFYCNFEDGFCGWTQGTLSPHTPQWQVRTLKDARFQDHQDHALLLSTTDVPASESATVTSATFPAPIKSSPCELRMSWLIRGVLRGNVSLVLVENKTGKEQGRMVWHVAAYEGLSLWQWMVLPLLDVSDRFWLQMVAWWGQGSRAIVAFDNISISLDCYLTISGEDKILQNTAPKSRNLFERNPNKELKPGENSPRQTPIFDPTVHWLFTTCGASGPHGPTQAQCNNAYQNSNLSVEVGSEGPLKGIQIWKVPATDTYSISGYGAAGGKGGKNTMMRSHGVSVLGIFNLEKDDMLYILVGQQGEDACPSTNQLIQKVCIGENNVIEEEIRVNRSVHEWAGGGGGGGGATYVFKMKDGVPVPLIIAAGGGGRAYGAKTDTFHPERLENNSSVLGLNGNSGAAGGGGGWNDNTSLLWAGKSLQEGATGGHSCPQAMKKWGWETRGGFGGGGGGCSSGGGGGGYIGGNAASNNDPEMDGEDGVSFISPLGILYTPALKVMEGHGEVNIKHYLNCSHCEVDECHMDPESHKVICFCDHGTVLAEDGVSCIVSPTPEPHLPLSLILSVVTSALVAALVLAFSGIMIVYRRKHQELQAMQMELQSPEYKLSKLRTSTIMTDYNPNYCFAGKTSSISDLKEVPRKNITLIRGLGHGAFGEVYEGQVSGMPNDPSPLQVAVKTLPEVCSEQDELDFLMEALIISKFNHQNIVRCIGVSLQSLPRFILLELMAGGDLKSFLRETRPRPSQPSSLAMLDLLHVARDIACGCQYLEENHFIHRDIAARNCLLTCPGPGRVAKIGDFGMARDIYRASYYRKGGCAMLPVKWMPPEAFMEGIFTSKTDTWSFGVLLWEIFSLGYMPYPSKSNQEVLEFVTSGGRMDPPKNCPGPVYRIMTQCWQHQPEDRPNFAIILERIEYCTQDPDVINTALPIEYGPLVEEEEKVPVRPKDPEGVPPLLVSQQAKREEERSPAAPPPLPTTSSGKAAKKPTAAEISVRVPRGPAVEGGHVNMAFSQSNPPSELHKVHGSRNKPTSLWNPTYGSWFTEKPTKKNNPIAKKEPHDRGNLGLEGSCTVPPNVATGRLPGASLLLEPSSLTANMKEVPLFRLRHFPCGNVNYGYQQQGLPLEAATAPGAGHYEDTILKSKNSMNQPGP

[2] = Antiproliferative activity against ALK constitutively activated human NCI-H3122 cells at 50 nM after 72 hrs by SRB or CCK8 assay relative to control; type: functional; conditions: NCI-H3122, 72 h
[3] = target: T1, ALK tyrosine kinase receptor; assay: Inhibition of ALK in human NCI-H3122 cells assessed as decrease in STAT3 phosphorylation after 1 hr by Western blot method; type: cell-based
Target sequence in this assay (Q9UM73 19-1620 limits assumed): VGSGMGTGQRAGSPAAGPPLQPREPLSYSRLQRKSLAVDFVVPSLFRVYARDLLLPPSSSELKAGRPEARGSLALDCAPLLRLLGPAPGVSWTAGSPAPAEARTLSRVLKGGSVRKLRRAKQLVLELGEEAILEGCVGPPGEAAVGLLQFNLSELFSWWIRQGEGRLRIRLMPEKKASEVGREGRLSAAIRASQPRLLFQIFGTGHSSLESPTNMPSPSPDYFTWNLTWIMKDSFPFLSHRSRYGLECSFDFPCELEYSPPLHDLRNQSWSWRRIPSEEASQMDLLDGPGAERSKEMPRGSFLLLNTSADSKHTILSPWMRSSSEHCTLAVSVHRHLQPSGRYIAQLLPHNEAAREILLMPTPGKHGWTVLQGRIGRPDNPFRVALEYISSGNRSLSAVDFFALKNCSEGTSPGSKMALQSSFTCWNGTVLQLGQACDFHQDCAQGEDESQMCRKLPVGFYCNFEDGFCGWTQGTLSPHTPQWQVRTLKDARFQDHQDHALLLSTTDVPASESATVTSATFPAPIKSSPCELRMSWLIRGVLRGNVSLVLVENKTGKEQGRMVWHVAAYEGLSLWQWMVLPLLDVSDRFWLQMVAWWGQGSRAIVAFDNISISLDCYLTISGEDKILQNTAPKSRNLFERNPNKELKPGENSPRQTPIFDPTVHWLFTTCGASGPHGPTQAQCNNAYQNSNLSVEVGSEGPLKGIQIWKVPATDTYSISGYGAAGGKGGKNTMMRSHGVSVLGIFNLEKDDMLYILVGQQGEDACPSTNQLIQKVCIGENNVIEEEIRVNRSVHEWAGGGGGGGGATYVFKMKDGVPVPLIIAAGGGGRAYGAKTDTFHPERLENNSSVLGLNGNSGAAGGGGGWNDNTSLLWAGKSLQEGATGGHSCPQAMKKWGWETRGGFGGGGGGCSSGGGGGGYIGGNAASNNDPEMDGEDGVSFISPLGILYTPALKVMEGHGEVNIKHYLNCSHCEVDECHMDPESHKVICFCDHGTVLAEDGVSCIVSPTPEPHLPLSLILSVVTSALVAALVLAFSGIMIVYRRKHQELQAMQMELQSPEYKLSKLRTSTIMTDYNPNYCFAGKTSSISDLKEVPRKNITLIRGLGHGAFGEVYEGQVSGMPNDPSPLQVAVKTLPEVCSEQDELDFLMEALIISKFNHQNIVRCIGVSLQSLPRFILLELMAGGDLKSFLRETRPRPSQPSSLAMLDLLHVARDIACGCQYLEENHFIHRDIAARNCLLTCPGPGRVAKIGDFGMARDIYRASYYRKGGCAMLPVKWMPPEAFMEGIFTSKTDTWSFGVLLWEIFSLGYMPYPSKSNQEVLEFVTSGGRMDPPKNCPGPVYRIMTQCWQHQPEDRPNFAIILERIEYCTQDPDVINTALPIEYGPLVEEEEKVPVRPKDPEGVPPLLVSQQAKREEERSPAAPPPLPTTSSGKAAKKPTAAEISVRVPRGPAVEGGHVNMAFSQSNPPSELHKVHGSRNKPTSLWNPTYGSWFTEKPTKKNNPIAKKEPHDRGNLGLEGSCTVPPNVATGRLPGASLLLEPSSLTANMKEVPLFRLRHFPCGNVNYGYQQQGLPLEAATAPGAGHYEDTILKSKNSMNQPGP

[4] = target: T1, ALK tyrosine kinase receptor; assay: Inhibition of ALK phosphorylation in human NCI-H3122 cells after 1 hr by Western blot method; type: cell-based
Target sequence in this assay (Q9UM73 19-1620 limits assumed): as above

KARPAS-299 = assay: Antitumor activity against human KARPAS299 cells xenografted in nude mouse assessed as tumor regression at 10 to 50 mg/kg, po qd administered for 14 days measured post last dose; type: functional, organism-based
[5] = target: T1, ALK tyrosine kinase receptor; assay: Inhibition of ALK in human NCI-H3122 cells assessed as decrease in Akt phosphorylation after 1 hr by Western blot method; type: cell-based
Target sequence in this assay (Q9UM73 19-1620 limits assumed): as above

[6] = target: T1, ALK tyrosine kinase receptor; assay: Inhibition of ALK in human NCI-H3122 cells assessed as decrease in ERK phosphorylation after 1 hr by Western blot method; type: cell-based
Target sequence in this assay (Q9UM73 19-1620 limits assumed): as above

[7] = Antiproliferative activity against ALK constitutively activated human NCI-H3122 cells after 72 hrs by SRB or CCK8 assay; conditions: NCI-H3122, 72 h
[8] = Antiproliferative activity against ALK constitutively activated human SU-DHL1 cells after 72 hrs by SRB or CCK8 assay; conditions: SU-DHL-1, 72 h
[9] = Antitumor activity against human KARPAS299 cells xenografted in nude mouse assessed as tumor growth inhibition at 50 mg/kg, po qd administered for 14 days measured twice per week during compound dosing relative to vehicle-treated control; type: functional; conditions: KARPAS-299, po, 336 h, read-out: TGI
[10] = Antiproliferative activity against ALK constitutively activated human KARPAS299 cells after 72 hrs by SRB or CCK8 assay; conditions: KARPAS-299, 72 h
[11] = target: Voltage-gated inwardly rectifying potassium channel KCNH2 (Homo sapiens, UniProt Q12809); assay: Inhibition of human ERG
Voltage-gated inwardly rectifying potassium channel KCNH2, sequence (Q12809 whole entry): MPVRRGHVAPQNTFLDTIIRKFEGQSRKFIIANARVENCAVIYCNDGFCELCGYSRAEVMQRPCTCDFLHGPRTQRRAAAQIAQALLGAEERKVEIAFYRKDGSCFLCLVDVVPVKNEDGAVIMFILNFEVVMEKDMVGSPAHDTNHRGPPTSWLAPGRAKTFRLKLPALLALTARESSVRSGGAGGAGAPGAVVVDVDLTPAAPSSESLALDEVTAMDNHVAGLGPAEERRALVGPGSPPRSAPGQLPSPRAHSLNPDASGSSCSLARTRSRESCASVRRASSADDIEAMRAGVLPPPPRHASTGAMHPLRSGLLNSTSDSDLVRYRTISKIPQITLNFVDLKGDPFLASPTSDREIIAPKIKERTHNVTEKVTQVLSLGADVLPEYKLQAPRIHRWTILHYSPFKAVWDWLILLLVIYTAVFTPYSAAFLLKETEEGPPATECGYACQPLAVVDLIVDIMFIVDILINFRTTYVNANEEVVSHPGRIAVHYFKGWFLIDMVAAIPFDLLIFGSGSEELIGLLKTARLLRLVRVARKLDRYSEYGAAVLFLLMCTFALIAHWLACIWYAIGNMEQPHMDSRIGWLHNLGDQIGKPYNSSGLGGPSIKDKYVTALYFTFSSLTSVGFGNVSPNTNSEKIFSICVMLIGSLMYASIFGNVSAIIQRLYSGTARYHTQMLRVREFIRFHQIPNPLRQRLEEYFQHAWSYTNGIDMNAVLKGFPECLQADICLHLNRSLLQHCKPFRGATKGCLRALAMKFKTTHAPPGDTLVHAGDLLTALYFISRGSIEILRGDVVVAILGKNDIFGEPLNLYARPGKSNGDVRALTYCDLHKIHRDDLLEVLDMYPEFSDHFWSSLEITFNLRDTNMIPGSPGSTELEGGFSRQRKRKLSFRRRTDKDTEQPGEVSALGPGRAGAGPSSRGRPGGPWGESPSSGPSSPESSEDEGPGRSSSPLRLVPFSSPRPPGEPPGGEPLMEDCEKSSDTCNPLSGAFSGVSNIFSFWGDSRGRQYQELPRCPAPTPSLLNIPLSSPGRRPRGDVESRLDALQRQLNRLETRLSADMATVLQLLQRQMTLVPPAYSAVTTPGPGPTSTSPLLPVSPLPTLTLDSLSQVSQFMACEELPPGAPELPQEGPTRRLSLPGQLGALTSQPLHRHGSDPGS

[12] = Drug level in rat liver microsomes treated with 9-Ethyl-8-(4-((4-hydroxytetrahydro-2H-pyran-4-yl)methyl)piperazin-1-yl)-6,6-dimethyl-11-oxo-6,11-dihydro-5H-benzo[b]carbazole-3-carbonitrile after 3 hrs; type: ADME
[13] = Antiproliferative activity against ALK constitutively activated human NCI-H3122 cells at 10 nM after 72 hrs by SRB or CCK8 assay relative to control; type: functional; conditions: NCI-H3122, 72 h
[14] = Antitumor activity against human KARPAS299 cells xenografted in nude mouse assessed as tumor growth inhibition at 20 mg/kg, po qd administered for 14 days measured twice per week during compound dosing relative to vehicle-treated control; type: functional; conditions: KARPAS-299, po, 336 h, read-out: TGI
Mus musculus = assay: Toxicity in nude mouse xenografted with human KARPAS299 cells assessed as body weight loss at 10 to 50 mg/kg, po qd administered for 14 days; type: organism-based, KARPAS-299; conditions: in vivo, 336 h
[15] = Antitumor activity against human KARPAS299 cells xenografted in nude mouse assessed as tumor growth inhibition at 10 mg/kg, po qd administered for 14 days measured twice per week during compound dosing relative to vehicle-treated control; type: functional; conditions: KARPAS-299, po, 336 h, read-out: TGI
[16] = Half life in Sprague-Dawley rat at 5 mg/kg, iv; type: ADME, organism-based; conditions: in vivo
[17] = Volume of distribution in Sprague-Dawley rat at 5 mg/kg, iv; type: ADME, organism-based; conditions: in vivo
[18] = Clearance in Sprague-Dawley rat at 5 mg/kg, iv; type: ADME, organism-based; conditions: in vivo
[19] = target: Platelet-derived growth factor receptor beta (Homo sapiens, UniProt P09619); assay: Inhibition of recombinant PDGFR-beta (unknown origin) using poly (Glu,Tyr)4:1 as substrate after 60 mins by ELISA
[20] = target: Insulin-like growth factor 1 receptor (Homo sapiens, UniProt P08069); assay: Inhibition of recombinant IGF1R (unknown origin) using poly (Glu,Tyr)4:1 as substrate after 60 mins by ELISA
[21] = Oral bioavailability in Sprague-Dawley rat at 10 mg/kg; type: ADME, organism-based; conditions: in vivo
[22] = target: ALK tyrosine kinase receptor (Homo sapiens, UniProt Q9UM73, L1196M); assay: Inhibition of recombinant ALK L1196M mutant (unknown origin) using poly (Glu,Tyr)4:1 as substrate after 60 mins by ELISA
ALK tyrosine kinase receptor (Homo sapiens, UniProt Q9UM73, L1196M), sequence (Q9UM73 19-1620 L1196M limits assumed): as the sequence (Q9UM73 19-1620 limits assumed) above, with L1178M counted along it

[23] = target: Vascular endothelial growth factor receptor 2 (Homo sapiens, UniProt P35968); assay: Inhibition of recombinant KDR (unknown origin) using poly (Glu,Tyr)4:1 as substrate after 60 mins by ELISA
[24] = target: Proto-oncogene tyrosine-protein kinase Src (Homo sapiens, UniProt P12931); assay: Inhibition of recombinant c-Src (unknown origin) using poly (Glu,Tyr)4:1 as substrate after 60 mins by ELISA
Proto-oncogene tyrosine-protein kinase Src, sequence (P12931 2-536 limits assumed): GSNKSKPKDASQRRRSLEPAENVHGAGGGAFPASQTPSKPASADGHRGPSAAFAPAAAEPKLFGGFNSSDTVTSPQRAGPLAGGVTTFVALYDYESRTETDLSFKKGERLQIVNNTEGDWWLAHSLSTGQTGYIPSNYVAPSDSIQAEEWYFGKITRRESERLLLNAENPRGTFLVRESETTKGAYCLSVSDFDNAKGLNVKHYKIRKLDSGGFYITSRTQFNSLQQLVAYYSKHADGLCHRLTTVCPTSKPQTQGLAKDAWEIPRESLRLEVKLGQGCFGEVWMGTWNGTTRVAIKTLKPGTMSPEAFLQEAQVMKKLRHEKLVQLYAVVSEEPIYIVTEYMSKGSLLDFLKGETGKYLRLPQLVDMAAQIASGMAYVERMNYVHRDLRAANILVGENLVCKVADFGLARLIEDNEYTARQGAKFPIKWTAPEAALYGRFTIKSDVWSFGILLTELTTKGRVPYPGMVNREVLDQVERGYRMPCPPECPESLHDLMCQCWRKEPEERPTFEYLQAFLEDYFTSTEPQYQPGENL

[25] = AUC (0 to infinity) in Sprague-Dawley rat at 5 mg/kg, iv; type: ADME, organism-based; parameters: dose 5 mg/kg, time infinity, route intravenous; conditions: in vivo
[26] = target: Receptor tyrosine-protein kinase erbB-4 (Homo sapiens, UniProt Q15303); assay: Inhibition of recombinant ErbB4 (unknown origin) using poly (Glu,Tyr)4:1 as substrate after 60 mins by ELISA
[27] = Tmax in Sprague-Dawley rat at 10 mg/kg, po; type: ADME, organism-based; conditions: in vivo
[28] = target: Receptor tyrosine-protein kinase erbB-2 (Homo sapiens, UniProt P04626); assay: Inhibition of recombinant ErbB2 (unknown origin) using poly (Glu,Tyr)4:1 as substrate after 60 mins by ELISA
Ephrin type-A receptor 2 = Ephrin type-A receptor 2 (Homo sapiens, UniProt P29317); assay: Inhibition of recombinant EPHA2 (unknown origin) using poly (Glu,Tyr)4:1 as substrate after 60 mins by ELISA
[29] = target: Epidermal growth factor receptor (Homo sapiens, UniProt P00533); assay: Inhibition of recombinant EGFR (unknown origin) using poly (Glu,Tyr)4:1 as substrate after 60 mins by ELISA
[30] = target: Platelet-derived growth factor receptor alpha (Homo sapiens, UniProt P16234); assay: Inhibition of recombinant PDGFR-alpha (unknown origin) using poly (Glu,Tyr)4:1 as substrate after 60 mins by ELISA
[31] = target: Tyrosine-protein kinase ABL1 (Homo sapiens, UniProt P00519); assay: Inhibition of recombinant ABL (unknown origin) using poly (Glu,Tyr)4:1 as substrate after 60 mins by ELISA
[32] = AUC (0 to infinity) in Sprague-Dawley rat at 10 mg/kg, po; type: ADME, organism-based; parameters: dose 10 mg/kg, time infinity, route oral; conditions: in vivo
[33] = target: Mast/stem cell growth factor receptor Kit (Homo sapiens, UniProt P10721); assay: Inhibition of recombinant c-Kit (unknown origin) using poly (Glu,Tyr)4:1 as substrate after 60 mins by ELISA
[34] = Cmax in Sprague-Dawley rat at 10 mg/kg, po; type: ADME, organism-based; parameters: dose 10 mg/kg, route oral; conditions: in vivo

CCc1cc2c(cc1N1CCN(CC3(O)CCNCC3)CC1)C(C)(C)c1[nH]c3cc(C#N)ccc3c1C2=O
IC50 [1]: 1.4 nM
inhibition at 0.05 µM [2]: 5%

CCc1cc2c(cc1N1CCN(CC3(O)CCOCC3)CC1)C(C)(C)c1[nH]c3cc(C#N)ccc3c1C2=O [listing 1 of 2 here]
inhibition [3]: Dose-dependent effect
inhibition [4]: Dose-dependent effect
Activity (KARPAS-299): Active
inhibition [5]: Dose-dependent effect
inhibition [6]: Dose-dependent effect

C[C@@H](Oc1cc(-c2cnn(C3CCNCC3)c2)cnc1N)c1c(Cl)ccc(F)c1Cl [CRIZOTINIB]
IC50 [7]: 101 nM
IC50 [8]: 92.3 nM
inhibition in vivo at 50 mg/kg [9]: 109%
IC50 [10]: 105 nM

CC1(C)c2cc(C3CCN(CC4CCOCC4)CC3)ccc2C(=O)c2c1[nH]c1cc(C#N)ccc21
IC50 [11]: 2650 nM

CCc1cc2c(cc1N1CCN(CC3(O)CCCCC3)CC1)C(C)(C)c1[nH]c3cc(C#N)ccc3c1C2=O
IC50 [1]: 7 nM
inhibition at 0.05 µM [2]: 40%

CCc1cc2c(cc1N1CCN(CC(O)(CCC(=O)O)CC(=O)O)CC1)C(C)(C)c1[nH]c3cc(C#N)ccc3c1C2=O (stereo not given)
IC50 [1]: 17.1 nM
inhibition at 0.05 µM [2]: 3%
Drug metabolism [12]: Metabolite_Detected

CCc1cc2c(cc1N1CCN(CC3(O)CC(C)OC(C)C3)CC1)C(C)(C)c1[nH]c3cc(C#N)ccc3c1C2=O (stereo not given)
IC50 [1]: 2.4 nM
inhibition at 0.01 µM [13]: 40%

CC1(C)c2cc(C3CCN(CC4(O)CCOCC4)CC3)ccc2C(=O)c2c1[nH]c1cc(C#N)ccc21
IC50 [11]: > 12300 nM

CCc1cc2c(cc1N1CCN(CC3(O)CCOCC3)CC1)C(C)(C)c1[nH]c3cc(C#N)ccc3c1C2=O.Cl
inhibition in vivo at 20 mg/kg [14]: > 100%
inhibition in vivo at 50 mg/kg [9]: 110%
Activity (Mus musculus): Non-Toxic
inhibition in vivo at 10 mg/kg [15]: 110%

CCc1cc2c(cc1N1CCN(CC3(O)CCOCC3)CC1)C(C)(C)c1[nH]c3cc(C#N)ccc3c1C2=O [listing 2 of 2 here]
half-life [16]: 5.5 h
IC50 [1]: 1.5 nM
Vd [17]: 5 L/kg
clearance [18]: 12.2 mL/min/kg
IC50 [7]: 24.4 nM
IC50 [8]: 16.7 nM
IC50 [19]: > 1000 nM
IC50 [20]: > 1000 nM
bioavailability [21]: 105%
IC50 [22]: 4.2 nM
IC50 [23]: > 1000 nM
IC50 [24]: > 1000 nM
AUC(0-inf) [25]: 6640 ng·h/mL
IC50 [26]: > 1000 nM
inhibition at 0.05 µM [2]: 80%
Tmax [27]: 4 h
IC50 [28]: > 1000 nM
IC50 (Ephrin type-A receptor 2): > 1000 nM
IC50 [29]: > 1000 nM
IC50 [30]: > 1000 nM
IC50 [31]: > 1000 nM
IC50 [10]: 22.6 nM
AUC(0-inf) [32]: 11700 ng·h/mL
IC50 [33]: > 1000 nM
Cmax [34]: 867 ng/mL
IC50 [11]: 30000 to 33400 nM
